Source: patent US20050266096A1, “New synergetic compositions of vitamins, minerals and trace-elements to stimulate the elimination of intra-cellular lipid deposits” (priority 2004, published 2005)

Test system: vascular smooth muscle cells
Assay: Reduction of intracellular lipid deposits in lipid-loaded cell cultures
Type: cell-based
Conditions: for Percent decrease in intracellular lipids: individual element, concentration per row in μg/ml (0.016% RDA), 3 days after exposure, vs untreated control cultures = 100% lipid deposits, n = 24; for effect on the reduction/elimination of intracellular lipid deposits (in words): tables 1-3
Method: To evaluate the effects of vitamins, minerals & trace-elements on the cellular capacity to eliminate intracellular lipid deposits, the cultures of vascular smooth muscle cells were prepared on plastic cover slips in vitro as described by Shrivastava at al (Meth Expt Find,1994).
A 50-60% cell monolayer was obtained within 4 days of culture. The hyperlipidemic rabbit serum was added to the culture medium, cells were incubated at 37° C.-5% CO2 for 48 h and the presence of intracellular cytoplasmic lipid deposit was quantified (considered 100% lipid deposits) . The culture medium was then replaced by a predefined blank medium containing no vitamins, minerals & trace-elements containing 1% fetal calf serum. Desired concentrations of vitamins, minerals and trace-elements were prepared in the predefined control culture medium by dissolving the test substances in the medium and by replacing the culture medium by the test product containing medium.
The in vitro cytoxicity of each vitamin, mineral and trace-element was determined. […]
The results were expressed a mean percentage decrease in intracellular lipid deposits compared to the untreated control cultures considered as containing 100% lipid deposits.

Molecule: [O-2].[Zn+2] [Zinc, zinc oxide]
- Percent decrease in intracellular lipids: 16.3 ± 4.4%
- effect on the reduction/elimination of intracellular lipid deposits (in words): minor effect

Molecule: calcium gluconate
- Percent decrease in intracellular lipids: 0.0%

Molecule: CC1=C(/C=C/C(C)=C/C=C/C(C)=C/C=C/C=C(C)/C=C/C=C(C)/C=C/C2=C(C)CCCC2(C)C)C(C)(C)CCC1 [Vitamin A, beta carotene]
- effect on the reduction/elimination of intracellular lipid deposits (in words): minor effect

Molecule: iron gluconate
- Percent decrease in intracellular lipids: 6.3 ± 2.7%

Molecule: [I-].[K+] [Iodine, potassium iodide]
- Percent decrease in intracellular lipids: 0.0%

Molecule: [O]=[Mg] [Magnesium, magnesium oxide]
- Percent decrease in intracellular lipids: 22.0 ± 5.2%
- effect on the reduction/elimination of intracellular lipid deposits (in words): minor effect

Molecule: Cc1cc2nc3c(=O)[nH]c(=O)nc-3n(C[C@H](O)[C@H](O)[C@H](O)CO)c2cc1C [Vitamin B2, riboflavin]
- effect on the reduction/elimination of intracellular lipid deposits (in words): minor effect

Molecule: [Cl-].[K+] [Potassium, potassium chloride]
- Percent decrease in intracellular lipids: 0.0%

Molecule: Nc1nc2ncc(CNc3ccc(C(=O)N[C@@H](CCC(=O)O)C(=O)O)cc3)nc2c(=O)[nH]1 [Vitamin B9, folic acid]
- effect on the reduction/elimination of intracellular lipid deposits (in words): minor effect

Molecule: CC(=O)Oc1c(C)c(C)c2c(c1C)CCC(C)(CCC[C@H](C)CCC[C@H](C)CCCC(C)C)O2 (stereo partly drawn) [Vitamin E, tocopherol acetate]
- effect on the reduction/elimination of intracellular lipid deposits (in words): minor effect
